Results published in ChEMBL document CHEMBL1147331, “Cytotoxic and antimalarial bisbenzylisoquinoline alkaloids from Stephania erecta” (J Nat Prod, 1993).
Values after ≈ are worked out from the molar mass of the structure shown.

Columns and labels:
in vitro [1] = conditions: human, A431 cells
Description: Selectivity index, ratio of ED50 for human A431 cells to ED50 for chloroquine-sensitive Plasmodium falciparum D6

[2] = Selectivity index, ratio of ED50 for human BCA1 cells to ED50 for chloroquine-resistant Plasmodium falciparum W2; assay type: toxicity, cell-based; conditions: read-out: Ratio ED50
[3] = Selectivity index, ratio of ED50 for human LUC1 cells to ED50 for chloroquine-resistant Plasmodium falciparum W2; assay type: toxicity, cell-based; conditions: read-out: Ratio ED50
[4] = Selectivity index, ratio of ED50 for human KB-V1 cells to ED50 for chloroquine-resistant Plasmodium falciparum W2; assay type: toxicity, cell-based; conditions: read-out: Ratio ED50
[5] = Cytotoxicity against human A431 cells after 3 days by sulforhodamine B assay; assay type: cell-based, A-431; conditions: read-out: ED50
Plasmodium falciparum [6] = assay: Antimalarial activity after 24 hrs against chloroquine-sensitive Plasmodium falciparum D6 infected type A+ human erythrocytes by [3H]hypoxanthine uptake; assay type: functional; conditions: read-out: ED50 (the source's name)
in vitro [7] = conditions: mouse, P388 cells
Description: Selectivity index, ratio of ED50 for mice (Mus musculus) P388 cells to ED50 for chloroquine-sensitive Plasmodium falciparum D6

[8] = Cytotoxicity against human KB cells after 3 days by sulforhodamine B assay; assay type: cell-based; conditions: read-out: ED50
[9] = Selectivity index, ratio of ED50 for human KB cells to ED50 for chloroquine-sensitive Plasmodium falciparum D6; assay type: toxicity, cell-based; conditions: read-out: Ratio ED50
[10] = Selectivity index, ratio of ED50 for human MEL2 cells to ED50 for chloroquine-resistant Plasmodium falciparum W2; assay type: toxicity, cell-based; conditions: read-out: Ratio ED50
[11] = Cytotoxicity against human SK-MEL-2 cells after 3 days by sulforhodamine B assay; assay type: cell-based; conditions: read-out: ED50
[12] = Cytotoxicity against human LNCAP cells after 3 days by sulforhodamine B assay; assay type: cell-based; conditions: read-out: ED50
[13] = Selectivity index, ratio of ED50 for human KB-V1 cells to ED50 for chloroquine-sensitive Plasmodium falciparum D6; assay type: toxicity, cell-based; conditions: read-out: Ratio ED50
[14] = Selectivity index, ratio of ED50 for human HT1080 cells to ED50 for chloroquine-sensitive Plasmodium falciparum D6; assay type: toxicity, cell-based, HT-1080; conditions: read-out: Ratio ED50
[15] = Cytotoxicity against human LUC1 cells after 3 days by sulforhodamine B assay; assay type: cell-based; conditions: read-out: ED50
[16] = Cytotoxicity against human ZR-75-1 cells after 3 days by sulforhodamine B assay; assay type: cell-based; conditions: read-out: ED50
[17] = Cytotoxicity against mouse P388 cells after 2 days by sulforhodamine B assay; assay type: cell-based; conditions: read-out: ED50
[18] = Selectivity index, ratio of ED50 for human ZR-75-1 cells to ED50 for chloroquine-sensitive Plasmodium falciparum D6; assay type: toxicity, cell-based; conditions: read-out: Ratio ED50
[19] = Selectivity index, ratio of ED50 for human MEL2 cells to ED50 for chloroquine-sensitive Plasmodium falciparum D6; assay type: toxicity, cell-based; conditions: read-out: Ratio ED50
[20] = Selectivity index, ratio of ED50 for human LNCaP cells to ED50 for chloroquine-sensitive Plasmodium falciparum D6; assay type: toxicity, cell-based; conditions: read-out: Ratio ED50
[21] = Cytotoxicity against human BCA1 cells after 3 days by sulforhodamine B assay; assay type: cell-based; conditions: read-out: ED50
[22] = Selectivity index, ratio of ED50 for human COL1 cells to ED50 for chloroquine-resistant Plasmodium falciparum W2; assay type: toxicity, cell-based; conditions: read-out: Ratio ED50
[23] = Ratio of ED50 for human KB cells to ED50 for human KBV1 cells; assay type: ADME, cell-based; conditions: KB cells and KBV1 cells, read-out: Ratio ED50
[24] = Cytotoxicity against human Col1 cells after 3 days by sulforhodamine B assay; assay type: cell-based; conditions: read-out: ED50
[25] = Selectivity index, ratio of ED50 for human COL1 cells to ED50 for chloroquine-sensitive Plasmodium falciparum D6; assay type: toxicity, cell-based; conditions: read-out: Ratio ED50
[26] = Selectivity index, ratio of ED50 for human LNCaP cells to ED50 for chloroquine-resistant Plasmodium falciparum W2; assay type: toxicity, cell-based; conditions: read-out: Ratio ED50
[27] = Selectivity index, ratio of ED50 for human ZR-75-1 cells to ED50 for chloroquine-resistant Plasmodium falciparum W2; assay type: toxicity, cell-based; conditions: read-out: Ratio ED50
[28] = Selectivity index, ratio of ED50 for human BCA1 cells to ED50 for chloroquine-sensitive Plasmodium falciparum D6; assay type: toxicity, cell-based; conditions: read-out: Ratio ED50
in vitro [29] = conditions: mouse, P388 cells; remark: listed apart in the source
Description: Selectivity index, ratio of ED50 for mice (Mus musculus) P388 cells to ED50 for chloroquine-resistant Plasmodium falciparum W2

[30] = Cytotoxicity against human KBV1 cells after 3 days by sulforhodamine B assay; assay type: cell-based, KB-V1; conditions: read-out: ED50
[31] = Selectivity index, ratio of ED50 for human KB cells to ED50 for chloroquine-resistant Plasmodium falciparum W2; assay type: toxicity, cell-based; conditions: read-out: Ratio ED50
[32] = Cytotoxicity against human HT1080 cells after 3 days by sulforhodamine B assay; assay type: cell-based, HT-1080; conditions: read-out: ED50
[33] = Selectivity index, ratio of ED50 for human LUC1 cells to ED50 for chloroquine-sensitive Plasmodium falciparum D6; assay type: toxicity, cell-based; conditions: read-out: Ratio ED50
Plasmodium falciparum [34] = assay: Antimalarial activity after 24 hrs against chloroquine-resistant Plasmodium falciparum W2 infected type A+ human erythrocytes by [3H]hypoxanthine uptake; assay type: functional; conditions: read-out: ED50 (the source's name)
in vitro [35] = conditions: human, A431 cells; remark: listed apart in the source
Description: Selectivity index, ratio of ED50 for human A431 cells to ED50 for chloroquine-resistant Plasmodium falciparum W2

[36] = Selectivity index, ratio of ED50 for human HT1080 cells to ED50 for chloroquine-resistant Plasmodium falciparum W2; assay type: toxicity, cell-based, HT-1080; conditions: read-out: Ratio ED50

Compound | selectivity ratio (in vitro [1]) | selectivity ratio [2] | selectivity ratio [3] | selectivity ratio [4] | CC50 at 72 h [5] [µg/mL] | EC50 (Plasmodium falciparum [6]) [µg/mL] | selectivity ratio (in vitro [7]) | CC50 at 72 h [8] [µg/mL] | selectivity ratio [9] | selectivity ratio [10] | CC50 at 72 h [11] [µg/mL] | CC50 at 72 h [12] [µg/mL] | selectivity ratio [13] | selectivity ratio [14] | CC50 at 72 h [15] [µg/mL] | CC50 at 72 h [16] [µg/mL] | CC50 at 48 h [17] [µg/mL] | selectivity ratio [18] | selectivity ratio [19] | selectivity ratio [20] | other results
COc1ccc2cc1Oc1ccc(cc1)C[C@H]1c3c(cc(OC)c4c3Oc3cc5c(cc3O4)CCN(C)[C@@H]5C2)CCN1C | 27 | 9 | 30 | 2 | 2.6 (≈ 4.51 µM) | 0.0974 (≈ 0.169 µM) | 57 | 4.8 (≈ 8.32 µM) | 49 | 34 | 8.7 (≈ 15.1 µM) | 2.1 (≈ 3.64 µM) | 4 | 23 | 7.7 (≈ 13.4 µM) | 1.2 (≈ 2.08 µM) | 5.6 (≈ 9.71 µM) | 12 | 89 | 22 | CC50 at 72 h [21]: 2.3 µg/mL (≈ 3.99 µM); selectivity ratio [22]: 14; selectivity ratio [23]: 10; CC50 at 72 h [24]: 3.6 µg/mL (≈ 6.24 µM); selectivity ratio [25]: 37; selectivity ratio [26]: 8; selectivity ratio [27]: 5; selectivity ratio [28]: 24; selectivity ratio (in vitro [29]): 22; CC50 at 72 h [30]: 0.4 µg/mL (≈ 0.694 µM); selectivity ratio [31]: 19; CC50 at 72 h [32]: 2.2 µg/mL (≈ 3.81 µM); selectivity ratio [33]: 79; EC50 (Plasmodium falciparum [34]): 0.256 µg/mL (≈ 0.443 µM); selectivity ratio (in vitro [35]): 10; selectivity ratio [36]: 9
COc1ccc2cc1Oc1ccc(cc1)C[C@H]1c3c(cc4c(c3Oc3cc5c(cc3OC)CCN(C)[C@@H]5C2)OCO4)CCN1C [CEPHARANTHINE] | 15 | 16 | 25 | 3 | 2.1 (≈ 3.46 µM) | 0.14 (≈ 0.231 µM) | 2 | 5.9 (≈ 9.72 µM) | 42 | 49 | 14.5 (≈ 23.9 µM) | 5.6 (≈ 9.23 µM) | 6 | 44 | 8.8 (≈ 14.5 µM) | 1 (≈ 1.65 µM) | 0.3 (≈ 0.494 µM) | 7 | 103 | 40 | CC50 at 72 h [21]: 4.7 µg/mL (≈ 7.75 µM); selectivity ratio [22]: 31; CC50 at 72 h [24]: 9 µg/mL (≈ 14.8 µM); selectivity ratio [25]: 64; selectivity ratio [26]: 19; selectivity ratio [27]: 3; selectivity ratio [28]: 34; selectivity ratio (in vitro [29]): 1; CC50 at 72 h [30]: 0.9 µg/mL (≈ 1.48 µM); selectivity ratio [31]: 20; CC50 at 72 h [32]: 6.1 µg/mL (≈ 10.1 µM); selectivity ratio [33]: 52; EC50 (Plasmodium falciparum [34]): 0.295 µg/mL (≈ 0.486 µM); selectivity ratio (in vitro [35]): 7; selectivity ratio [36]: 21
COc1ccc2cc1Oc1ccc(cc1)C[C@H]1c3c(cc(OC)c(O)c3Oc3cc4c(cc3OC)CCN(C)[C@@H]4C2)CCN1C [HOMOAROMOLINE] | 85 | 13 | 34 | 11 | 8.9 (≈ 14.6 µM) | 0.105 (≈ 0.172 µM) | 35 | 6.3 (≈ 10.3 µM) | 60 | 31 | 9 (≈ 14.8 µM) | 3.4 (≈ 5.59 µM) | 30 | 86 | 8.6 (≈ 14.1 µM) | 1.2 (≈ 1.97 µM) | 3.7 (≈ 6.08 µM) | 19 | 86 | 33 | CC50 at 72 h [21]: 3.6 µg/mL (≈ 5.91 µM); selectivity ratio [22]: 35; CC50 at 72 h [24]: 10 µg/mL (≈ 16.4 µM); selectivity ratio [25]: 96; selectivity ratio [26]: 12; selectivity ratio [27]: 7; selectivity ratio [28]: 34; selectivity ratio (in vitro [29]): 13; CC50 at 72 h [30]: 3.1 µg/mL (≈ 5.09 µM); selectivity ratio [31]: 22; CC50 at 72 h [32]: 9 µg/mL (≈ 14.8 µM); selectivity ratio [33]: 93; EC50 (Plasmodium falciparum [34]): 0.288 µg/mL (≈ 0.474 µM); selectivity ratio (in vitro [35]): 31; selectivity ratio [36]: 31
COc1ccc2cc1Oc1ccc(cc1)C[C@H]1c3c(cc(OC)c(OC)c3Oc3cc4c(cc3OC)CCN(C)[C@@H]4C2)CCN1C [OBABERINE] | 38 | 21 | 45 | 12 | 8.7 (≈ 14 µM) | 0.231 (≈ 0.371 µM) | 18 | 8.6 (≈ 13.8 µM) | 37 | 93 | 20 (≈ 32.1 µM) | 5 (≈ 8.03 µM) | 11 | 45 | 9.7 (≈ 15.6 µM) | 4 (≈ 6.42 µM) | 4.1 (≈ 6.58 µM) | 17 | 87 | 22 | CC50 at 72 h [21]: 4.6 µg/mL (≈ 7.39 µM); selectivity ratio [22]: 50; CC50 at 72 h [24]: 10.8 µg/mL (≈ 17.3 µM); selectivity ratio [25]: 47; selectivity ratio [26]: 23; selectivity ratio [27]: 19; selectivity ratio [28]: 20; selectivity ratio (in vitro [29]): 19; CC50 at 72 h [30]: 2.6 µg/mL (≈ 4.17 µM); selectivity ratio [31]: 40; CC50 at 72 h [32]: 10.4 µg/mL (≈ 16.7 µM); selectivity ratio [33]: 42; EC50 (Plasmodium falciparum [34]): 0.216 µg/mL (≈ 0.347 µM); selectivity ratio (in vitro [35]): 40; selectivity ratio [36]: 48
C=C[C@H]1CN2CC[C@H]1C[C@H]2[C@H](O)c1ccnc2ccc(OC)cc12 [QUININE] | > 2630 | 649 | 649 | 182 | > 20 | 0.0076 (≈ 0.0234 µM) | > 658 | > 20 | > 2630 | 649 | > 20 | > 20 | 737 | > 2630 | > 20 | > 20 | > 5 | > 2630 | > 2630 | > 2630 | CC50 at 72 h [21]: > 20 µg/mL; selectivity ratio [22]: 649; CC50 at 72 h [24]: > 20 µg/mL; selectivity ratio [25]: > 2630; selectivity ratio [26]: 649; selectivity ratio [27]: 649; selectivity ratio [28]: > 2630; selectivity ratio (in vitro [29]): > 658; CC50 at 72 h [30]: 5.6 µg/mL (≈ 17.3 µM); selectivity ratio [31]: 649; CC50 at 72 h [32]: > 20 µg/mL; selectivity ratio [33]: > 2630; EC50 (Plasmodium falciparum [34]): 0.0308 µg/mL (≈ 0.0949 µM); selectivity ratio (in vitro [35]): 649; selectivity ratio [36]: 649
